Data: ChEMBL document CHEMBL1156714, “Microwave induced synthesis of novel 8,9-dihydro-7H-pyrimido[4,5-b][1,4]diazepines as potential antitumor agents” (2008)
The source made the active and inactive calls. No cut-off for these calls is given here.

Tests used:
[1] = tested on: NCI-60; assay: Growth inhibition of human NCI-60 cells at 1.0 uM; assay type: functional, cell-based
[2] = tested on: RXF 393; assay: Growth inhibition of human RXF393 cells after 48 hrs by SRB assay; assay type: functional; conditions: RXF 393, 48 h
[3] = tested on: UO-31; assay: Growth inhibition of human UO31 cells after 48 hrs by SRB assay; assay type: functional; conditions: UO-31, 48 h; for CC50: read-out: LC50 (the source's name)
[4] = tested on: HCT-116; assay: Growth inhibition of human HCT116 cells after 48 hrs by SRB assay; assay type: functional; conditions: HCT-116, 48 h; for CC50: read-out: LC50 (the source's name)
[5] = tested on: SR; assay: Growth inhibition of human SR cells after 48 hrs by SRB assay; assay type: functional
[6] = tested on: BT-549; assay: Growth inhibition of human BT549 cells after 48 hrs by SRB assay; assay type: functional; conditions: BT-549, 48 h
[7] = Growth inhibition of human HL60(TB) cells after 48 hrs by SRB assay; assay type: functional, HL-60(TB)
[8] = tested on: HCT-15; assay: Growth inhibition of human HCT15 cells after 48 hrs by SRB assay; assay type: functional; conditions: HCT-15, 48 h; for CC50: read-out: LC50 (the source's name)
[9] = tested on: NCI-H522; assay: Growth inhibition of human NCI-H522 cells after 48 hrs by SRB assay; assay type: functional; conditions: NCI-H522, 48 h; for CC50: read-out: LC50 (the source's name)
[10] = tested on: RPMI-8226; assay: Growth inhibition of human RPMI8226 cells after 48 hrs by SRB assay; assay type: functional; conditions: RPMI-8226, 48 h; for CC50: read-out: LC50 (the source's name)
[11] = tested on: Hs-578T; assay: Growth inhibition of human HS578T cells after 48 hrs by SRB assay; assay type: functional; conditions: for CC50: read-out: LC50 (the source's name)
[12] = tested on: IGROV-1; assay: Growth inhibition of human IGROV1 cells after 48 hrs by SRB assay; assay type: functional; conditions: IGROV-1, 48 h; for CC50: read-out: LC50 (the source's name)
[13] = tested on: MDA-MB-468; assay: Growth inhibition of human MDA-MB-468 cells after 48 hrs by SRB assay; assay type: functional; conditions: MDA-MB-468, 48 h
[14] = tested on: COLO 205; assay: Growth inhibition of human COLO205 cells after 48 hrs by SRB assay; assay type: functional; conditions: COLO 205, 48 h
[15] = Growth inhibition of human OVACR3 cells after 48 hrs by SRB assay; assay type: functional
[16] = tested on: HCC 2998; assay: Growth inhibition of human HCC2998 cells after 48 hrs by SRB assay; assay type: functional; conditions: HCC 2998, 48 h
[17] = tested on: NCI/ADR-RES; assay: Growth inhibition of human NCI/ADR-RES cells after 48 hrs by SRB assay; assay type: functional
[18] = tested on: SF-268; assay: Growth inhibition of human SF268 cells after 48 hrs by SRB assay; assay type: functional; conditions: SF-268, 48 h
[19] = tested on: HOP-62; assay: Growth inhibition of human HOP62 cells after 48 hrs by SRB assay; assay type: functional; conditions: HOP-62, 48 h
[20] = tested on: K562; assay: Growth inhibition of human K562 cells after 48 hrs by SRB assay; assay type: functional; conditions: K562, 48 h
[21] = tested on: TK-10; assay: Growth inhibition of human TK10 cells after 48 hrs by SRB assay; assay type: functional; conditions: TK-10, 48 h
[22] = tested on: PC-3; assay: Growth inhibition of human PC3 cells after 48 hrs by SRB assay; assay type: functional; conditions: PC-3, 48 h
[23] = tested on: U-251; assay: Growth inhibition of human U251 cells after 48 hrs by SRB assay; assay type: functional; conditions: U-251, 48 h
[24] = Growth inhibition of human […] cells after 48 hrs by SRB assay; assay type: functional
[25] = tested on: MOLT-4; assay: Growth inhibition of human MOLT4 cells after 48 hrs by SRB assay; assay type: functional; conditions: MOLT-4, 48 h
[26] = Growth inhibition of human OVACR5 cells after 48 hrs by SRB assay; assay type: functional
[27] = tested on: A549; assay: Growth inhibition of human A549 cells after 48 hrs by SRB assay; assay type: functional; conditions: A549, 48 h
[28] = tested on: A498; assay: Growth inhibition of human A498 cells after 48 hrs by SRB assay; assay type: functional; conditions: A498, 48 h
[29] = tested on: SNB-75; assay: Growth inhibition of human SNB75 cells after 48 hrs by SRB assay; assay type: functional; conditions: SNB-75, 48 h
[30] = tested on: SW-620; assay: Growth inhibition of human SW620 cells after 48 hrs by SRB assay; assay type: functional; conditions: SW-620, 48 h
[31] = Growth inhibition of human OVACR4 cells after 48 hrs by SRB assay; assay type: functional
[32] = tested on: ACHN; assay: Growth inhibition of human ACHN cells after 48 hrs by SRB assay; assay type: functional
[33] = tested on: DU-145; assay: Growth inhibition of human DU145 cells after 48 hrs by SRB assay; assay type: functional; conditions: DU-145, 48 h
[34] = tested on: LOX IMVI; assay: Growth inhibition of human LOX IMVI cells after 48 hrs by SRB assay; assay type: functional
[35] = tested on: MCF7; assay: Growth inhibition of human MCF7 cells after 48 hrs by SRB assay; assay type: functional; conditions: MCF7, 48 h
[36] = tested on: NCI-H322M; assay: Growth inhibition of human NCI-H322M cells after 48 hrs by SRB assay; assay type: functional
[37] = tested on: SF-295; assay: Growth inhibition of human SF295 cells after 48 hrs by SRB assay; assay type: functional; conditions: SF-295, 48 h
[38] = tested on: KM12; assay: Growth inhibition of human KM12 cells after 48 hrs by SRB assay; assay type: functional; conditions: KM12, 48 h
[39] = tested on: RXF 393; assay: Growth inhibition of human […] cells after 48 hrs by SRB assay; assay type: functional; conditions: RXF 393, 48 h
[40] = tested on: MDA-MB-231; assay: Growth inhibition of human MDA-MB-231 cells after 48 hrs by SRB assay; assay type: functional; conditions: MDA-MB-231, 48 h
[41] = tested on: HT-29; assay: Growth inhibition of human HT29 cells after 48 hrs by SRB assay; assay type: functional; conditions: HT-29, 48 h
[42] = read-out: LC50 (the source's name)

## Nc1ncnc2c1N=C(c1ccc3c(c1)OCO3)CC(c1ccc([N+](=O)[O-])cc1)N2 (racemic)
[1]
  Activity: Active
[2]
  GI50: 7.19 µM
[2]; [42]
  CC50: > 100 µM
[3]
  GI50: 18.1 µM
  CC50: > 100 µM
[4]
  GI50: 18.2 µM
  CC50: > 100 µM
[5]
  GI50: 2.37 µM
  LC50 (concentration killing 50% of cells): > 100 µM
[6]
  GI50: 1.68 µM
[6]; [42]
  CC50: > 100 µM
[7]
  LC100: >100 µM
[7]; Homo sapiens, HL-60, 48 h
  GI50: 13.1 µM
[8]
  GI50: 9.55 µM
  CC50: > 100 µM
[9]
  GI50: 6.78 µM
  CC50: > 100 µM
[10]
  GI50: 0.19 µM
  CC50: > 100 µM
[11]
  GI50: 9.18 µM
  CC50: > 100 µM
[12]
  GI50: 0.068 µM
  CC50: 25.5 µM

## Nc1ncnc2c1N=C(c1ccc3c(c1)OCO3)CC(c1ccc(Cl)cc1)N2 (racemic)
[1]
  Activity: Active
[13]
  GI50: 10.1 µM
[13]; [42]
  CC50: > 100 µM
[14]
  GI50: 15 µM
[14]; [42]
  CC50: > 100 µM
[3]
  GI50: 7.48 µM
  CC50: > 100 µM
[4]
  GI50: 10.7 µM
  CC50: 47.5 µM
[15]
  GI50: 3.71 µM
  LC50: 83 µM
[16]
  GI50: 5.88 µM
  LC50 (concentration killing 50% of cells): > 100 µM
[17]
  GI50: 5.35 µM
[17]; [42]
  CC50: > 100 µM
[18]
  GI50: 8.52 µM
  LC50 (50% lethal concentration): > 100 µM
[19]
  GI50: 16.6 µM
[19]; [42]
  CC50: > 100 µM
[20]
  GI50: 4.27 µM
  LC50: > 100 µM
[21]
  GI50: 8.23 µM
[21]; [42]
  CC50: > 100 µM
[22]
  GI50: 9.06 µM
[22]; [42]
  CC50: 50.8 µM
[23]
  GI50: 6.19 µM
[23]; [42]
  CC50: 78.9 µM
[24]
  GI50: 4.66 µM
[24]; [42]
  CC50: > 100 µM
[7]; Homo sapiens, HL-60, 48 h
  GI50: 5.37 µM
[7]; Homo sapiens, HL-60, 48 h, read-out: LC50 (the source's name)
  CC50: > 100 µM
[25]
  GI50: 5.85 µM
[25]; [42]
  CC50: > 100 µM
[8]
  GI50: 3.14 µM
  CC50: 55.2 µM
[9]
  GI50: 2.37 µM
  CC50: > 100 µM
[26]
  GI50: 18.3 µM
[26]; [42]
  CC50: > 100 µM
[27]
  GI50: 11.6 µM
  LC50: 78.3 µM
[10]
  GI50: 1.5 µM
  CC50: > 100 µM
[11]
  GI50: 1.07 µM
  CC50: > 100 µM
[28]
  GI50: 5.94 µM
  LC50: > 100 µM
[29]
  GI50: 5.22 µM
[29]; [42]
  CC50: > 100 µM
[30]
  GI50: 4.91 µM
[30]; [42]
  CC50: > 100 µM
[31]
  GI50: 18.3 µM
  LC50: > 100 µM
[32]
  GI50: 8.25 µM
  LC50 (lethal concentration 50%): > 100 µM
[33]
  GI50: 16.8 µM
[33]; [42]
  CC50: 65.9 µM
[34]
  GI50: 10.1 µM
[34]; [42]
  CC50: > 100 µM
[35]
  GI50: 3.61 µM
  LC50: > 100 µM
[36]
  GI50: 16.9 µM
[36]; [42]
  CC50: > 100 µM
[37]
  GI50: 14.7 µM
  LC50: > 100 µM
[38]
  GI50: 2.03 µM
[38]; [42]
  CC50: > 100 µM
[39]
  GI50: 2.51 µM
[39]; [42]
  CC50: 59.3 µM
[12]
  GI50: 0.35 µM
  CC50: 42.8 µM
[40]
  GI50: 2.7 µM
[40]; [42]
  CC50: 55.6 µM
[41]
  GI50: 3.81 µM
[41]; [42]
  CC50: > 100 µM

## COc1ccc(C2=Nc3c(N)ncnc3NC(c3ccc4c(c3)OCO4)C2)cc1 (racemic)
[1]
  Activity: inactive

## COc1ccc(C2CC(c3ccc4c(c3)OCO4)=Nc3c(N)ncnc3N2)cc1 (racemic)
[1]
  Activity: inactive

## Nc1ncnc2c1N=C(c1ccc(Cl)cc1)CC(c1ccc3c(c1)OCO3)N2 (racemic)
[1]
  Activity: inactive

## Nc1ncnc2c1N=C(c1ccc([N+](=O)[O-])cc1)CC(c1ccc3c(c1)OCO3)N2 (racemic)
[1]
  Activity: inactive
